Our source for the Activity and Tm values is ChEMBL document CHEMBL4014333, “Discovery of Small Molecules for Repressing Cap-Independent Translation of Human Vascular Endothelial Growth Factor (hVEGF) as Novel Antitumor Agents” (J Med Chem, 2017).

Activity calls are given as the source filed them. No cut-off for these calls is given here.

Test [1] relates to MCF7. The test can be described thus: Antitumor activity against human MCF7 cells xenografted in nude Balb/c mouse assessed as tumor weight at 1 mg/kg, ip qd for 20 days. It is filed as functional.
For test [2], the species on record is Homo sapiens. The test can be described thus: Destabilization of human 5'-UGAAGAGUGUGAGUAGUA-3' RNA expressed in MCF7 cells assessed as down regulation of VEGF-A translation at up to 0.5 uM after 24 hrs by dual-luciferase reporter gene assay. The test is classed as cell-based.
Test [3] is filed under the species Homo sapiens. The test can be described thus: Destabilization of human wild type internal ribosome entry site A RNA G-quadruplex expressed in MCF7 cells assessed as down regulation of VEGF-A translation at 1.5 uM after 24 hrs by dual-luciferase reporter gene assay relative to control. It is filed as cell-based. For orientation: Reporter assays use an easily measured gene product as a stand-in for the process of interest.

The species entered for test [4] is Homo sapiens. The experiment in a line: Destabilization of human wild type internal ribosome entry site A RNA G-quadruplex assessed as melting temperature at 5 uM by CD spectra method (reference value: 80.9 +/- 0.8 degreeC).

As for `COc1cccc2c1C(=O)c1c(O)c3c(c(O)c1C2=O)C[C@@](O)(C(=O)CO)C[C@@H]3O[C@H]1C[C@H](N)[C@H](O)[C@H](C)O1` [DOXORUBICIN], in test [1], the Activity was 0.14 g.
Consider `NCCOc1cc(C(=O)Nc2cc(OCCN)c3ccccc3n2)cc(C(=O)Nc2cc(OCCN)c3ccccc3n2)c1`, for which the outcome in test [2] and in test [3] was inactive. Moreover, the Tm in test [4] is > 76 °C.
